Experimental data as given in publication PMC7091493 (Journal of medicinal chemistry, 2019).

Tests used:
Assay type in all cases: biochemical
Mtb20S = Mtb20S (Mycobacterium tuberculosis, UniProt P9WHT9); details: for inhibitory potency against Mtb20S (in words): qualitative statement, comparison as stated in the sentence
human i-20S β5i = human i-20S β5i (Homo sapiens, UniProt P20618+P28062); assay: Human immunoproteasome inhibition assay; details: for inhibitory potency against human i-20S (in words): qualitative statement, comparison as stated in the sentence
human c-20S β5c = human c-20S β5c (Homo sapiens, UniProt P20618+P28074); details: qualitative statement; comparison as stated in the sentence

Mtb20S, sequence (P9WHT9 58-291): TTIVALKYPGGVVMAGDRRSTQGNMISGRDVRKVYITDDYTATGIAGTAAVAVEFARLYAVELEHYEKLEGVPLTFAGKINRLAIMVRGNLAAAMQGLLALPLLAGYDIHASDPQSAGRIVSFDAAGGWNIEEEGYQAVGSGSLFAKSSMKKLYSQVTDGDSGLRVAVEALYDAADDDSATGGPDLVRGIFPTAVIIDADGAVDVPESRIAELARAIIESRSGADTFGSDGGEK

For Cc1cc(C(=O)N[C@@H](CC(=O)N2CCCC[C@@H]2C)C(=O)N[C@@H](C)C(=O)NCc2ccc(F)cc2F)no1 [A85], the “inhibitory potency against Mtb20S (in words)” value (Mtb20S) was “maintaining potency” and the “selectivity for Mtb20S over i-20S β5i” value (human i-20S β5i) was 4 fold.

In the case of Cc1cc(C(=O)N[C@@H](CC(=O)N2CCC[C@@H]2c2ccccc2)C(=O)N[C@@H](C)C(=O)NCc2ccc(F)cc2F)no1 [A86], the “improvement in IC50 values against Mtb20S” value (Mtb20S; relative to A85) was 2.4 fold.

In the case of Cc1cc(C(=O)N[C@@H](CC(=O)N2CCC[C@@H]2c2ccccc2)C(=O)N[C@@H](C)C(=O)NCc2c(F)cccc2F)no1 [A119], the “inhibitory potency against Mtb20S (in words)” value (Mtb20S) was “maintained” and the “inhibitory potency against human i-20S (in words)” value (human i-20S β5i) was “reduced”.

COc1ccccc1CNC(=O)[C@H](C)NC(=O)[C@H](CC(=O)N1CCC[C@@H]1c1ccccc1)NC(=O)c1cc(C)on1 [A120] was tested, and the “inhibitory potency against Mtb20S (in words)” value (Mtb20S) was “reduced”, the “inhibitory potency against human c-20S (in words)” value (human c-20S β5c) was “reduced” and the “inhibitory potency against human i-20S (in words)” value (human i-20S β5i) was “reduced”.

Cc1cc(C(=O)N[C@@H](CC(=O)N2CCCC[C@@H]2C)C(=O)N[C@@H](C)c2ncc(-c3ccccc3)[nH]2)no1 [B1] was tested, and the “inhibitory potency against Mtb20S (in words)” value (Mtb20S) was “modest inhibitory activity”.

In the case of Cc1cc(C(=O)N[C@@H](CC(=O)N2CCC[C@@H]2c2ccccc2)C(=O)N[C@@H](C)c2ncc(-c3ccccc3F)[nH]2)no1 [B6], the “selectivity for Mtb20S over both c-20S and i-20S (in words)” value (from here on “selectivity for Mtb20S … (in words)”) (Mtb20S) was “markedly selective” and the “inhibitory potency against Mtb20S (in words)” value (Mtb20S) was “highly potent”.

In the case of Cc1cc(C(=O)N[C@@H](CC(=O)N2CCC[C@@H]2c2ccccc2)C(=O)N[C@@H](C)c2ncc(-c3ccccc3)[nH]2)no1 [B36], the “selectivity for Mtb20S … (in words)” value (Mtb20S) was “markedly selective” and the “inhibitory potency against Mtb20S (in words)” value (Mtb20S) was “highly potent”.

Cc1cc(C(=O)N[C@@H](CC(=O)N2CCC[C@@H]2c2ccccc2)C(=O)N[C@@H](C)c2ncc(-c3ccc(F)cc3F)[nH]2)no1 [B37] was tested, and the “selectivity for Mtb20S … (in words)” value (Mtb20S) was “markedly selective” and the “inhibitory potency against Mtb20S (in words)” value (Mtb20S) was “highly potent”.
